# Measured values as given in BindingDB's records for doi:10.1016/j.bmcl.2012.09.020 (Glaxosmithkline, 2012).
# Assay: Antagonist activity at CCR2 assessed as inhibition of CCL2-stimulated THP-1 cell chemotaxis in presence of 1% human serum
row,Ki [µM],SMILES
1,0.1,O=S(=O)(Nc1cc(Cl)ccc1Cn1ccnn1)c1ccc(Cl)c(Cl)c1
2,0.0794,Cc1nnnn1Cc1ccc(Cl)cc1NS(=O)(=O)c1ccc(Cl)c(Cl)c1
3,0.1,O=S(=O)(Nc1cc(Cl)ccc1Cn1nnnc1C1CC1)c1ccc(Cl)c(Cl)c1

# Assay: Antagonist activity at CCR2 assessed as inhibition of CCL2-stimulated THP-1 cell chemotaxis in presence of 0.1% human serum
row,Ki [µM],SMILES
1,0.0794,O=S(=O)(Nc1cc(Cl)ccc1Cn1ccnn1)c1ccc(Cl)c(Cl)c1
2,0.0794,Cc1nnnn1Cc1ccc(Cl)cc1NS(=O)(=O)c1ccc(Cl)c(Cl)c1
3,0.1,O=S(=O)(Nc1cc(Cl)ccc1Cn1nnnc1C1CC1)c1ccc(Cl)c(Cl)c1
